From US12319649B1, “Cannabidiolic acid cocrystals” (Manoira Corporation, priority 2024, dated 2025)

Experiments:
[1] = Solid-state stability study at 40° C. and 75% relative humidity; assay type: physicochemical; settings: 40° C./75% RH, sealed container; for Storage stability compared to pure cannabidiolic acid: up to 4 weeks
Description: The physical stability of the cannabidiolic acid cocrystals was examined with respect to solid form conversion or signs of decomposition or decarboxylation, and to compare the results with those for pure cannabidiolic acid. In order to assess the storage potential of the cocrystals within a reasonable timeframe standard accelerated storage conditions of 40° C. and 75% relative humidity were chosen. 50 mg each of the 1:1 cannabidiolic acid L-phenylalanine, 1:1 cannabidiolic acid vanillin, 1:1 cannabidiolic acid betaine, 1:1 cannabidiolic acid ethyl maltol, 1:1 cannabidiolic acid L-proline and cannabidiolic acid were separately placed in a sealed container at 40° C. and 75% relative humidity and monitored periodically over a 4-week time period. All samples that had not decomposed and remained as solids were analyzed by XRPD after this time to observe any potential form changes. At the start of the study, all cocrystal samples were white solids while the pure cannabidiolic acid was an off-white solid.

[2] = test system: nausea and vomiting in a rat model; settings: via 5-HT1A activation mechanism, Bolognini et al. 2012; cited from earlier work
COX-2 = molecular target: T1, COX-2 (Homo sapiens, UniProt P35354); settings: Takeda 2008; cited from earlier work
T1 sequence (P35354 18-604): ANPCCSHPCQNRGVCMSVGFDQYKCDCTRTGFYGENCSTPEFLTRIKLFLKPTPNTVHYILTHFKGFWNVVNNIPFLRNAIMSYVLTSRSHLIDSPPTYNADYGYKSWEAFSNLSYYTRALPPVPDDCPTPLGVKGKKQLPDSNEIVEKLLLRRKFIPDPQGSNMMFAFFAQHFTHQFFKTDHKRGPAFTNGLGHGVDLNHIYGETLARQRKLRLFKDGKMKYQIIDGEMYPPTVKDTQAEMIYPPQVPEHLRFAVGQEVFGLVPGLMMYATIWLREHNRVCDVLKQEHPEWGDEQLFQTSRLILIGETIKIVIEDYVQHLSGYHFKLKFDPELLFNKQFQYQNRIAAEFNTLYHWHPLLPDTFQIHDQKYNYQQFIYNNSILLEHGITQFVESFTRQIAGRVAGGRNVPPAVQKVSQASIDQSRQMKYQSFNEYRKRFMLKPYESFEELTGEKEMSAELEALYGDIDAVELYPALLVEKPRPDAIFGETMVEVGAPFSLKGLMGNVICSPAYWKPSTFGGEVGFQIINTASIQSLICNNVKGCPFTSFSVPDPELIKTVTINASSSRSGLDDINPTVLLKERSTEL

5-HT1A = molecular target: T2, 5-HT1A (Rattus norvegicus, UniProt P19327); settings: higher affinity than CBD; Bolognini et al. 2012; cited from earlier work
T2 sequence (P19327 1-422): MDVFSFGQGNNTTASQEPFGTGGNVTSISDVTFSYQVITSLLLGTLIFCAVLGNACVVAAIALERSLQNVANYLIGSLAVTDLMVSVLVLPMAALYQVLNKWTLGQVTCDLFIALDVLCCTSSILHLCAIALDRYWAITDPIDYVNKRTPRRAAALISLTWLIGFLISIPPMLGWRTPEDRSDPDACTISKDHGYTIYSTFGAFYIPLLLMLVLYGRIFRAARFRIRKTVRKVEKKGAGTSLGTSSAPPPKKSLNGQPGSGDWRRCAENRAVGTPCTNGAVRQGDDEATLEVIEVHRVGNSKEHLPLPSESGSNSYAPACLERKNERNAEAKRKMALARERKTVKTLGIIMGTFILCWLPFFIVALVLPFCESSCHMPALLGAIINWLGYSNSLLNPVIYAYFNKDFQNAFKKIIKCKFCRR

[3] = WO2017025712; cited from earlier work

SMILES: C=C(C)[C@@H]1CCC(C)=C[C@H]1c1c(O)cc(CCCCC)c(C(=O)O)c1O.C[N+](C)(C)CC(=O)[O-] [1:1 CBDA Betaine Cocrystal, 1:1 cannabidiolic acid betaine cocrystal]
- XRPD (solid form change) ([1]; 4 weeks): No change
- XRPD (solid form change) ([1]; 4 weeks, listed as 1:1 cannabidiolic acid betaine): no solid form conversion or dissociation had occurred
- Appearance ([1]; 4 weeks, white solid at start): No change
- Appearance ([1]; 4 weeks, white solid at start, listed as 1:1 cannabidiolic acid betaine): remained unchanged as white solids
- Storage stability compared to pure cannabidiolic acid [1]: significantly superior storage properties compared to pure CBDA

SMILES: C=C(C)[C@@H]1CCC(C)=C[C@H]1c1c(O)cc(CCCCC)c(C(=O)O)c1O.CCc1occc(=O)c1O [1:1 CBDA Ethyl Maltol Cocrystal, 1:1 cannabidiolic acid ethyl maltol cocrystal]
- Time to conversion into dark brown liquid [1]: ≤ 2 weeks
- Appearance ([1]; 2 weeks, white solid at start): Dark brown liquid
- Storage stability compared to pure cannabidiolic acid [1]: more stable than pure cannabidiolic acid

SMILES: C=C(C)C1CCC(C)=CC1c1c(O)cc(CCCCC)c(C(=O)O)c1O.O=C(O)C1CCCN1 [1:1 CBDA L-Proline Cocrystal, 1:1 cannabidiolic acid L-proline cocrystal]
- XRPD (solid form change) ([1]; 4 weeks): No change
- XRPD (solid form change) ([1]; 4 weeks, listed as 1:1 cannabidiolic acid L-proline cocrystal): same crystalline structure
- Appearance ([1]; 4 weeks, white solid at start): tan solid
- Appearance ([1]; 4 weeks, white solid at start, listed as 1:1 cannabidiolic acid L-proline cocrystal): tanned colored solid

SMILES: C=C(C)[C@@H]1CCC(C)=C[C@H]1c1c(O)cc(CCCCC)c(C(=O)O)c1O.N[C@@H](Cc1ccccc1)C(=O)O [1:1 CBDA Phenylalanine Cocrystal, 1:1 cannabidiolic acid L-phenylalanine cocrystal]
- XRPD (solid form change) ([1]; 4 weeks): No change
- XRPD (solid form change) ([1]; 4 weeks, listed as 1:1 cannabidiolic acid L-phenylalanine): no solid form conversion or dissociation had occurred
- Appearance ([1]; 4 weeks, white solid at start): No change
- Appearance ([1]; 4 weeks, white solid at start, listed as 1:1 cannabidiolic acid L-phenylalanine): remained unchanged as white solids
- Storage stability compared to pure cannabidiolic acid [1]: significantly superior storage properties compared to pure CBDA

SMILES: C=C(C)[C@@H]1CCC(C)=C[C@H]1c1c(O)cc(CCCCC)c(C(=O)O)c1O.COc1cc(C=O)ccc1O [1:1 CBDA Vanillin Cocrystal, 1:1 cannabidiolic acid vanillin cocrystal]
- Time to conversion into dark brown liquid [1]: ≤ 3 weeks
- Appearance ([1]; 3 weeks, white solid at start): Dark brown liquid
- Storage stability compared to pure cannabidiolic acid [1]: more stable than pure cannabidiolic acid

SMILES: C=C(C)[C@@H]1CCC(C)=C[C@H]1c1c(O)cc(CCCCC)c(C(=O)O)c1O [Pure CBDA, cannabidiolic acid]
- Inhibition of nausea and vomiting, potency versus CBD [2]: significantly greater potency than CBD
- Inhibition of COX-2 activity (COX-2): selectively inhibit COX-2 activity
- Affinity for 5-HT1A relative to CBD (5-HT1A): 100 fold
- Time to deliquescence to a liquid [1]: Within one hour
- Appearance ([1]; 2 hours, off-white solid at start): Dark brown liquid
- Appearance ([1]; 2 hours, off-white solid at start, listed as pure CBDA): liquid that within a further hour had turned dark brown in color
- Efficacy in treating epilepsy versus CBD [3]: more effective than CBD
